Assay results: patent US10882856B2 (BeiGene, Ltd., priority 2017, dated 2021)

Experiments:
IDO1 [1] = target: T1, IDO1 (Homo sapiens, UniProt P14902); experiment: IDO1 enzymatic assay; type: biochemical; parameters: His tag (N); made in house; host or cells: E. coli; conditions: read-out: Enzyme IC50 IDO1
In short: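 Recombinant IDO1 carrying an N-terminal His tag and purified from E. coli was used at 50 nM with test compound, 1.3 mM D-tryptophan, 5 mM L-ascorbic acid, methylene blue and 0.4 mg/mL catalase in 50 mM potassium phosphate pH 7.5 containing 0.1% BSA. This mixture was incubated at 24 °C for 1.5 hours, after which N'-formylkynurenine formation was followed continuously at 321 nm for 1 hour and activity was taken as the slope. IC50 was derived from the enzyme activity remaining as compound concentration increased.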

[2] = target: T2, cellular TDO2 in HEK293-TDO2 cells (Homo sapiens, UniProt P48775); experiment: 293-TDO2 cell-based assay (Kyn colorimetric); conditions: 48 hours of incubation
T2 construct: expressed in transfected cells; host or cells: HEK293 (ATCC), stably transfected
In short: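 Kyn formed from L-Trp was read colorimetrically at 480 nm (TCA deproteinisation, then 2% 4-(dimethylamino)benzaldehyde). Compounds were added to 293-TDO2 cells 4 h post-seeding and left 48 h at 37° C. A four-parameter logistic model gave IC50 values.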

IDO1 [3] = target: T1, IDO1; experiment: Hela cell-based IDO1 assay; conditions: Hela cells
In short: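 Kynurenine was measured at 480 nm in trichloroacetic acid-deproteinised supernatant after adding 2% 4-(dimethylamino)benzaldehyde. This supernatant came from HeLa cells seeded at 8000 per well in 96-well plates in phenol red-free DMEM with 10% FBS and, from 4 hours after seeding, exposed for 48 hours at 37 °C, 5% CO2 to DMSO-diluted compound dilutions, IFN-γ (final 100 ng/mL) and 0.4 mM L-Trp. The resulting data were fitted with a four-parameter logistic model in XLfit. Potency was taken from those fits.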

T1 sequence (P14902 whole entry): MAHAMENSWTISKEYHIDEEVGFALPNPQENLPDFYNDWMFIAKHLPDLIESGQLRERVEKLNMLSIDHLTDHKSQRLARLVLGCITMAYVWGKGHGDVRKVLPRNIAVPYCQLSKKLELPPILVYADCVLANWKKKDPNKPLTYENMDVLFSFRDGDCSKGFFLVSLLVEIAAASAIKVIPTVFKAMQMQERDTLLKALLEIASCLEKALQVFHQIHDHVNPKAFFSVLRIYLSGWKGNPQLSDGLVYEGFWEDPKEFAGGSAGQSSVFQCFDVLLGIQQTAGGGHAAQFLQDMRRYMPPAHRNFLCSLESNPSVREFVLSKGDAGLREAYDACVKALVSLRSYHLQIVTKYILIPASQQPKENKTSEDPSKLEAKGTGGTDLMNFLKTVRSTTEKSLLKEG
T2 sequence (P48775 whole entry): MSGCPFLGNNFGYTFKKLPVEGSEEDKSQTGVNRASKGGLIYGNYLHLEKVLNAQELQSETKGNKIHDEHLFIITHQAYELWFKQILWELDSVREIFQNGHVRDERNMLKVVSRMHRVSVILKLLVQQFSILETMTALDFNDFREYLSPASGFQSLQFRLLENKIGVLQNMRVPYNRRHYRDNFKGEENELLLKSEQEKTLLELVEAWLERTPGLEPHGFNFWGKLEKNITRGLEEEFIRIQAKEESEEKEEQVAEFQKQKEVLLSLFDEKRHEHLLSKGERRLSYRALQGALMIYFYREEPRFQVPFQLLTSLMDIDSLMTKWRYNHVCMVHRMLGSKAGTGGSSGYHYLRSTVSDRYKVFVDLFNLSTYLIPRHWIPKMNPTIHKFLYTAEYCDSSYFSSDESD

Structure (SMILES) | IC50 (IDO1 [1]) | EC50 [2] | EC50 (IDO1 [3])
OC(c1c(C2CC2)ccc2cncn12)C1CCC(c2cccc(F)c2)CC1 (stereo not drawn) [Example D156, (6-cyclopropylimidazo[1,5-a]pyridin-5-yl)(4-(3-fluorophenyl)cyclohexyl)methanol] | 57 nM | > 10000 nM | 75 nM
OC(c1c(C2CC2)ccc2cncn12)C1CCC(c2ccc(F)c3ncccc23)CC1 (stereo not drawn) [Example D163, (6-cyclopropylimidazo[1,5-a]pyridin-5-yl)(4-(8-fluoroquinolin-5-yl)cyclohexyl)methanol] | 40 nM | > 10000 nM | 48 nM
COc1ccc(C2CCC(C(O)c3c(C4CC4)ccc4cncn34)CC2)c(Cl)c1 (stereo not drawn) [Example D147, (4-(2-chloro-4-methoxyphenyl)cyclohexyl)(6-cyclopropylimidazo[1,5-a]pyridin-5-yl)methanol] | 43 nM | > 10000 nM | 443 nM
O[C@@H](c1c(C2CC2)ccc2cncn12)C1CCN(c2cccc(F)c2)CC1 [Example D172b] | 2700 nM | > 10000 nM | 5400 nM
OC(c1c(C2CC2)ccc2cncn12)C1CCC(c2ccnc3ccc(F)cc23)CC1 (stereo not drawn) [Example D150, (6-cyclopropylimidazo[1,5-a]pyridin-5-yl)(4-(6-fluoroquinolin-4-yl)cyclohexyl)methanol] | 36 nM | > 10000 nM | 37 nM
O[C@@H](c1c(C2CC2)ccc2cncn12)C1CCN(c2cccc(Cl)c2)CC1 (single isomer, unassigned) [Example D173b] | 2700 nM | > 10000 nM | 7390 nM
O[C@@H](c1c(C2CC2)ccc2cncn12)[C@H]1CC[C@H](c2ccc(F)c(F)c2)CC1 (single isomer, unassigned) [Example D126b] | > 10000 nM | > 10000 nM | 6520 nM
O[C@@H](c1c(C2CC2)ccn2cncc12)[C@H]1CC[C@H](c2ccc(C(F)(F)F)nc2)CC1 (single isomer, unassigned) [Example C120b] | 4800 nM | > 10000 nM | > 10000 nM
O[C@@H](c1c(C2CC2)ccc2cncn12)C1CCN(c2ccc(Cl)c3ncccc23)CC1 (single isomer, unassigned) [Example D178b] | 2300 nM | > 10000 nM | 1470 nM
OC(c1c(C2CC2)ccn2cncc12)C1CCN(c2ccccc2)CC1 (single isomer, unassigned) [Example C136b] | 5400 nM | > 10000 nM | > 10000 nM

The next compounds have a lower IC50 (IDO1 [1]) than those just listed; values first:

IC50 (IDO1 [1]) | EC50 [2] | EC50 (IDO1 [3]) | Structure (SMILES)
18 nM | > 10000 nM | 103 nM | Nc1ccc([C@H]2CC[C@H]([C@H](O)c3c(C4CC4)ccc4cncn34)CC2)cc1 (single isomer, unassigned) [Example D122a]
15 nM | > 10000 nM | 372 nM | OC(c1c(C2CC2)ccn2cncc12)C1CCC(c2ccc3c(c2)OCO3)CC1 (stereo not drawn) [Example C123, (4-(benzo[dl][1,3]dioxol-5-yl)cyclohexyl)(7-cyclopropylimidazo[1,5-a]pyridin-8-yl) methanol]
21 nM | > 10000 nM | 47 nM | OC(c1c(C2CC2)ccn2cncc12)C1CCN(c2ccccc2)CC1 (single isomer, unassigned) [Example C136a]
15 nM | > 10000 nM | 26 nM | Oc1ccccc1[C@H]1CC[C@H]([C@H](O)c2c(C3CC3)ccc3cncn23)CC1 (single isomer, unassigned) [Example D112a]
30 nM | > 10000 nM | 492 nM | O[C@H](c1c(C2CC2)ccc2cncn12)[C@H]1CC[C@H](c2ccccc2Cl)CC1 (single isomer, unassigned) [Example D117a]
23 nM | > 10000 nM | 52 nM | O[C@H](c1c(C2CC2)ccc2cncn12)[C@H]1CC[C@H](c2cc(F)cc(F)c2)CC1 (single isomer, unassigned) [Example D144a]
